Data taken from publication PMC5629014, “Assessment of sesquiterpene lactones isolated from Mikania plants species for their potential efficacy against Trypanosoma cruzi and Leishmania sp” (PLoS Neglected Tropical Diseases, 2017).
Converted amounts (≈) assume the structure as drawn. “Also recorded” adds a separate entry of the source. Like-named read-outs stand apart in the source and are kept apart here.

What was measured:
[1] = tested on: Leishmania braziliensis promastigotes (MHOM/BR/75/M2903 strain); test: Growth inhibition of Leishmania braziliensis promastigotes, MTT method; assay type: cell-based; conditions: 72 h, read-out: IC50 on L. braziliensis promastigotes
Description: Leishmania braziliensis promastigotes (MHOM/BR/75/M2903 strain) were grown in liver infusion tryptose medium LIT, which was prepared as follows: 5 g/L liver infusion (Sigma 2023-072K1066), 5 g/L tryptose (Britania), 2 g/L glucose (Sigma), 68 mM NaCl, 5.4 mM KCl, 22 mM HPO4Na2, supplemented with 20 mg/L hemin (Sigma) and 10% (vol/vol) fetal calf serum (FCS) (Internegocios). Culture maintenance was performed by weekly passages at 26°C.
The growth inhibition of Leishmania braziliensis promastigotes was evaluated by the MTT method. Parasites (5x10^6) were settled at a final volume of 150 μL in a flat-bottom 96-well microplate and cultured at 37°C in a 5% CO2 atmosphere in the absence or presence of increasing concentrations of the pure compounds. After 72 h, 3-(4,5- dimethylthiazol-2-yl)-2,5-diphenyltetrazolium bromide (MTT) was added at a final concentration of 1.5 mg/mL. Plates were incubated for 2 h at 37°C. The purple formazan crystals formed were completely dissolved by adding 150 μL of ethanol and the absorbance was read at 595 nm in a microplate reader. The inhibition percentage was calculated as {100 − [(DO595nm of treated parasites/ DO595nm of untreated parasites) × 100]}. Compounds were tested at 0–50 μg/mL. Amphotericin B was used as positive control.

[2] = tested on: T. cruzi epimastigotes (RA strain); test: T. cruzi epimastigotes growth inhibition, [3H] thymidine uptake assay; assay type: cell-based, Trypanosoma cruzi; conditions: for IC50: Trypanosoma cruzi, read-out: IC50 on T. cruzi epimastigotes
Description: (§1) Trypanosoma cruzi epimastigotes (RA strain) were grown in a biphasic medium. Cultures were routinely maintained by weekly passages at 28°C. T. cruzi bloodstream trypomastigotes (RA strain) and the recombinant Tulahuen strain expressing β-galactosidase (Tul-β-Gal) were obtained from infected CF1 mice by cardiac puncture at the peak of parasitemia on day 15 post-infection. Trypomastigotes were routinely maintained by infecting 21-day-old CF1 mice.
The evaluation of T. cruzi epimastigotes growth inhibition was performed by the [^3H] thymidine uptake assay. Briefly, exponentially growing epimastigotes were adjusted to a cell density of 1.5 × 10^6 parasites/mL in fresh medium. Parasites were allowed to grow for 72 h at 28°C in medium with or without different concentrations of each compound (0–5 μg/mL) in triplicate. Percent of inhibition was calculated as {100 − [(cpm of treated parasites/ cpm of untreated parasites) × 100]}. The compound concentration at which the parasite growth was inhibited by 50% (IC50) was determined after 72 h. Benznidazole was used as positive control.

[3] = tested on: T. cruzi bloodstream trypomastigotes; test: Trypanocidal effect on bloodstream trypomastigotes, live parasite count in Neubauer chamber; assay type: cell-based; conditions: Trypanosoma cruzi; 24 h, remaining live parasites counted
Description: as §1
The trypanocidal effect of the purified compounds was also tested on bloodstream trypomastigotes. Briefly, mouse blood containing trypomastigotes was diluted in complete RPMI -1640 Medium (Sigma-Aldrich R6504- Batch 029K83102) with 10% (vol/vol) fetal calf serum (FCS) (Internegocios) to adjust the parasite concentration to 3 × 10^5/mL. Parasites were seeded in duplicate in a 96-well microplate in the presence of each compound (0–50 μg/mL) or controls and incubated at 4 °C for 24 h. The number of remaining living parasites in each sample was determined in 5 μL of cell suspension diluted 1/5 in lysis buffer (0.75% NH4Cl, 0.2% Tris, pH 7.2) and counted in a Neubauer chamber. Benznidazole was used as positive control.

T. cruzi amastigotes = test: Inhibition of intracellular amastigotes, β-galactosidase transfected parasites in Raw 264.7 cells (CPRG); assay type: cell-based; conditions: Trypanosoma cruzi
Description: as §1
The effect of each compound on intracellular forms of T. cruzi was assayed using β-galactosidase transfected parasites. Briefly, 96-well plates were seeded with Raw 264.7 cells at 5x10^3 per well in […] of culture medium and incubated for 24 h at 37 °C in a 5% CO2 atmosphere. Cells were washed and infected with transfected blood trypomastigotes expressing β-galactosidase at a parasite/cell ratio of 10:1. After 12 h of co- culture, plates were washed twice with PBS to remove unbound parasites and each pure compound was added at different concentrations (0.001–50 μg/mL) in 150 μL of fresh complete RPMI medium without phenol red (Gibco, Rockville, MD). Controls included infected untreated cells (100% infection control) and uninfected cells (0% infection control). The assay was developed 5 days later by the addition of chlorophenol red-β-D-galactopyranoside (CPRG) (100 mM) and 1% Nonidet P40. Plates were then incubated for 4–6 h at 37 °C and the absorbance was measured at 595 nm in a microplate reader (Bio-Rad Laboratories, Hercules, CA). The percentage inhibition was calculated as 100–{[(absorbance of treated infected cells)/(absorbance of untreated infected cells) x 100} and the IC50 value was estimated. Benznidazole was used as positive control.

[4] = Host cell toxicity, trypan blue exclusion method; assay type: cell-based, human; conditions: human
Description: (§2) The human monocyte leukemia THP1 (ATCC TIB202) cell line were obtained from the vendor. Cells were thawed, expanded and settled at a concentration 5x10^5 in a final volume of 150 μL in a flat-bottom 96-well microplate and cultured at 37°C in a 5% CO2 atmosphere in the absence or presence of increasing concentrations of the pure compounds. After 24 h, the cell viability was determined by the trypan blue exclusion method in the absence and presence of increasing concentrations of the compounds [26]. The 50% cytotoxic concentration (CC50) and the selectivity index (SI = CC50/IC50) were determined for each compound for T. cruzi trypomastigotes and amastigotes.

T. cruzi (RA strain) = test: Animal model of T. cruzi infection (acute, lethal dose); assay type: in vivo, Balb/c mice
Description: Inbred male Balb/c mice were nursed at the Departamento de Microbiología, Facultad de Medicina, Universidad de Buenos Aires. Groups of six Balb/c male mice (6 to 8 weeks old) were infected with 1000 bloodstream T. cruzi trypomastigotes by the intraperitoneal route. Five days after infection, the presence of circulating parasites was confirmed by the microhematocrit method (Sülsen et al., 2013). Mice were treated daily with compound 3 or benznidazole (1 mg/kg of body weight/day) for five consecutive days (days 4 to 8 post-infection) by the intraperitoneal route. Drugs were resuspended in DMSO and then adjust to concentration in 0.1 M phosphate buffered saline (PBS, pH 7.2); this vehicle was also employed as a negative control. Levels of parasitemia were monitored every 2 days in 5 μL of blood diluted 1:5 in lysis buffer (0.75% NH4Cl, 0.2% Tris, pH 7.2) by counting parasites in a Neubauer chamber. The number of animal deaths was recorded daily.
The weight of each animal was evaluated during the acute phase of infection. Results were expressed as the ratio between the weight on each day and the weight registered the day of the infection multiplied by 100.
Parasitemia and weight loss were analyzed using a non parametric test: Mann-Whitney test. The survival curves were analyzed with a log rank test.

[5] = tested on: human monocyte leukemia THP1 cells; test: Host cell toxicity, trypan blue exclusion method; assay type: cell-based; conditions: 24 h
Description: as §2

TNF-α = test: Cytokine production by macrophages, TNF-α sandwich ELISA; assay type: cell-based; conditions: RAW 264.7 macrophages, 25 μg/mL, 24 h, p<0.01
Description: RAW 264.7 (ATCC TIB71) macrophage cell line were obtained from ATCC and cultured (1×10^5) in duplicate in 24-well plates in the presence of 2.5 or 25 μg/mL of Compound 3, LPS (10 μg/mL) plus INF-γ (0.30 μg/mL) (positive control), or medium alone (negative control). After 24 h, supernatants were collected and stored at -80 °C until cytokine analysis. IL-12 and TNF-α levels were determined by sandwich ELISA (BD Pharmingen, and R&D System, Minneapolis, MN, respectively) according to manufacturer’s instructions. Supplied standards were used to generate a standard curve.

IL-12 = test: Cytokine production by macrophages, IL-12 sandwich ELISA; assay type: cell-based; conditions: RAW 264.7 macrophages, 24 h
Description: […] After 24 h, supernatants were collected and stored at -80 °C until cytokine analysis. IL-12 and TNF-α levels were determined by sandwich ELISA (BD Pharmingen, and R&D System, Minneapolis, MN, respectively) according to manufacturer’s instructions. Supplied standards were used to generate a standard curve.

[6] = 72 h, 28°C, [3H] thymidine uptake
[7] = RAW264.7, β-galactosidase expressing T. cruzi in mammalian cells, read-out: IC50 on T. cruzi amastigotes
[8] = infected Balb/c mice, 1 mg/kg/day i.p., days 4 to 8 post-infection
[9] = THP1 (ATCC TIB202) monocyte leukemia cells

Structure (SMILES) | IC50 ([1]; MTT) [µg/mL] | IC50 [3] [µg/mL] | IC50 [2, 6] [µg/mL] | IC50 (T. cruzi amastigotes; [7]) [µg/mL] | reduction of area under the parasitemia curve with respect to controls (T. cruzi (RA strain); [8]) [fold] | CC50 at 24 h [4, 9] [µg/mL] | CC50 [5] [µg/mL] | also measured
C[C@@H]1[C@H](O)[C@@H](C)/C=C/C=C/C=C/C=C/C=C/C=C/C=C/[C@H](O[C@@H]2O[C@H](C)[C@@H](O)[C@H](N)[C@@H]2O)C[C@@H]2O[C@](O)(C[C@@H](O)C[C@@H](O)[C@H](O)CC[C@@H](O)C[C@@H](O)CC(=O)O[C@H]1C)C[C@H](O)[C@H]2C(=O)O [amphotericin B, reference compound] | 0.26 (≈ 0.281 µM) | – | – | – | – | – | – | –
C=C1C(=O)OC2CC3(C)OC3C3OC3C3=CC(OC3=O)C12 (centres unmarked) [mikanolide] | – | 2.1 (≈ 7.23 µM) | – | – | – | – | – | IC50 [2]: 0.7 µg/mL (≈ 2.41 µM); IC50 (T. cruzi amastigotes; RAW264.7, read-out: IC50 on T. cruzi amastigotes): 4.5 µg/mL (≈ 15.5 µM); IC50 [1]: 5.1 µg/mL (≈ 17.6 µM); CC50 at 24 h ([4]; THP1 cells): 22.3 µg/mL (≈ 76.8 µM)
O=C(Cn1ccnc1[N+](=O)[O-])NCc1ccccc1 [benznidazole, reference compound] | – | 10.4 (≈ 40 µM) | 1.7 (≈ 6.53 µM) | 1.1 (≈ 4.23 µM) | 2.3 | – | – | –
C=C1C(=O)OC2CC3(C)OC3CC(OC(C)=O)C3=CC(OC3=O)C12 (centres unmarked) [scandenolide] | 252 (≈ 754 µM) | 68.4 (≈ 205 µM) | 137 (≈ 410 µM) | 60.6 (≈ 181 µM) | – | 864 (≈ 2580 µM) | – | activity on Trypanosoma cruzi ([2]; in words, all T. cruzi stages (abstract)): not active
C[C@H]1C(=O)O[C@H]2C[C@]3(C)O[C@H]3[C@@H]3O[C@@H]3C3=C[C@@H](OC3=O)[C@@H]21 [dihydromikanolide] | 57.1 (≈ 195 µM) | 0.3 (≈ 1.03 µM) | 2.5 (≈ 8.55 µM) | 8.5 (≈ 29.1 µM) | – | 13 (≈ 44.4 µM) | 13.0 (≈ 44.5 µM) | –
C=C1C(=O)OC2CC3(C)OC3CCC3=CC(OC3=O)C12 (centres unmarked) [deoxymikanolide] | 11.5 (≈ 41.6 µM) | 1.5 (≈ 5.43 µM) | 0.08 (≈ 0.29 µM) | 6.3 (≈ 22.8 µM) | 1.5 | 79.4 (≈ 287 µM) | 79.4 (≈ 287 µM) | weight loss during the acute phase of infection compared to control mice (T. cruzi (RA strain); 20 days post infection, p = 0.028): able to reduce the weight loss; blood parasitemia compared to controls (T. cruzi (RA strain); infected Balb/c mice, 1 mg/kg/day i.p., days 4 to 8 post-infection, 1 mg/kg/day): decrease the parasitemia; also recorded: lower blood parasitemia; mice surviving the acute phase of infection (T. cruzi (RA strain); lethal T. cruzi infection, controls 100% mortality by day 22, p = 0.02 Log-rank): 70%; secretion of TNF-α compared with negative control (TNF-α): significant increase; IL-12 production (IL-12; 2 μg/mL): slight increase; IL-12 production (IL-12; 25 μg/mL): higher production rate
